This note sets out measurements from patent US10023570B2 (Array BioPharma, Inc., priority 2015, dated 2018).

Counter-ions that a name gives are not always drawn. Like-named read-outs stand apart in the source and are kept apart here.

For experiment [1], the target named is human KDR protein in HEK-293 cells (Homo sapiens (Human), UniProt P35968). The experiment in a line: KDR Cell Assay (phospho-KDR in HEK-293 cells expressing inducible KDR). Format: cell-based. As to conditions: pKDR Cell HEK 10% FBS IC50, HEK-293 cells expressing inducible KDR, VEGF stimulated. The method in brief: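 HEK-293 cells with inducible human KDR were treated with compound for 1 h in DMEM (0.25% DMSO final), then lysed. Phospho-KDR was quantified by Meso Scale immunoassay, expressed as percent of control, and IC50 taken where a 4-parameter logistic fit crossed 50 POC.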
Sequence of human KDR protein in HEK-293 cells (P35968 20-1356): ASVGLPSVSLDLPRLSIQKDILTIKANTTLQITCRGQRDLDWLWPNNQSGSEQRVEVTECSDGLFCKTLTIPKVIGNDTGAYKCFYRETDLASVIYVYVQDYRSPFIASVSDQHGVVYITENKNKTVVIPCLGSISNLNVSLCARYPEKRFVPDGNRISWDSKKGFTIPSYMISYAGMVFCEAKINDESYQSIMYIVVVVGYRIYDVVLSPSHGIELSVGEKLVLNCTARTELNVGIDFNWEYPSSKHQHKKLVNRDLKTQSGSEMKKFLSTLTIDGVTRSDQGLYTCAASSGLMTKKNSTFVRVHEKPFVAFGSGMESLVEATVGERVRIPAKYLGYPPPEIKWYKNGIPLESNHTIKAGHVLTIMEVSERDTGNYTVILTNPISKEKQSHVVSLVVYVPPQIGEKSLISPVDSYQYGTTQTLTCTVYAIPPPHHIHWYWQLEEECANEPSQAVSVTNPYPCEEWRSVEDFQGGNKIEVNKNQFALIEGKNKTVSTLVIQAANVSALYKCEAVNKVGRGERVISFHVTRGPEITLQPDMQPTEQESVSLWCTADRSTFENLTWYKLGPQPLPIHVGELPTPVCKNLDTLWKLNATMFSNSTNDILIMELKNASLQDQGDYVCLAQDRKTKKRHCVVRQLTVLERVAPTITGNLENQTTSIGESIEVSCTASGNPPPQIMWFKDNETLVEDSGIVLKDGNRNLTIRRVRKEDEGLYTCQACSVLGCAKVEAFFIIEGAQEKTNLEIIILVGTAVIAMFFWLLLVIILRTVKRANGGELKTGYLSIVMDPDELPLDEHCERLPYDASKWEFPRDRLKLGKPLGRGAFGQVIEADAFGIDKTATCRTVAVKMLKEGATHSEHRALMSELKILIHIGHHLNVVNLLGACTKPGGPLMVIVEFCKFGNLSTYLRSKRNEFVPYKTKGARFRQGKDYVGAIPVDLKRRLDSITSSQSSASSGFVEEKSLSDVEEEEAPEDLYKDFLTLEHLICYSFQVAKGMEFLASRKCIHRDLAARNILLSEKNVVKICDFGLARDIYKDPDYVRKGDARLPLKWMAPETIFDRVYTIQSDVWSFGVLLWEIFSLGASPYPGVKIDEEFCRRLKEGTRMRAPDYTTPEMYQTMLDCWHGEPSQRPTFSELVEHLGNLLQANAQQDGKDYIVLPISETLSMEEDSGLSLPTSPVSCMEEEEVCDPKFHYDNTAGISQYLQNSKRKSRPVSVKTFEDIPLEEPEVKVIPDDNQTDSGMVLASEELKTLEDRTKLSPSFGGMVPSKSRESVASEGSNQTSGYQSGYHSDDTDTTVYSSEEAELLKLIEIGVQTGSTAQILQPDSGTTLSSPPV

In experiment [2] the target is Kif5b-RET fusion protein in HEK-293 cells (Homo sapiens, UniProt P07949). The experiment in a line: cell-based.
Sequence of Kif5b-RET fusion protein in HEK-293 cells (P07949 29-1114 limits assumed): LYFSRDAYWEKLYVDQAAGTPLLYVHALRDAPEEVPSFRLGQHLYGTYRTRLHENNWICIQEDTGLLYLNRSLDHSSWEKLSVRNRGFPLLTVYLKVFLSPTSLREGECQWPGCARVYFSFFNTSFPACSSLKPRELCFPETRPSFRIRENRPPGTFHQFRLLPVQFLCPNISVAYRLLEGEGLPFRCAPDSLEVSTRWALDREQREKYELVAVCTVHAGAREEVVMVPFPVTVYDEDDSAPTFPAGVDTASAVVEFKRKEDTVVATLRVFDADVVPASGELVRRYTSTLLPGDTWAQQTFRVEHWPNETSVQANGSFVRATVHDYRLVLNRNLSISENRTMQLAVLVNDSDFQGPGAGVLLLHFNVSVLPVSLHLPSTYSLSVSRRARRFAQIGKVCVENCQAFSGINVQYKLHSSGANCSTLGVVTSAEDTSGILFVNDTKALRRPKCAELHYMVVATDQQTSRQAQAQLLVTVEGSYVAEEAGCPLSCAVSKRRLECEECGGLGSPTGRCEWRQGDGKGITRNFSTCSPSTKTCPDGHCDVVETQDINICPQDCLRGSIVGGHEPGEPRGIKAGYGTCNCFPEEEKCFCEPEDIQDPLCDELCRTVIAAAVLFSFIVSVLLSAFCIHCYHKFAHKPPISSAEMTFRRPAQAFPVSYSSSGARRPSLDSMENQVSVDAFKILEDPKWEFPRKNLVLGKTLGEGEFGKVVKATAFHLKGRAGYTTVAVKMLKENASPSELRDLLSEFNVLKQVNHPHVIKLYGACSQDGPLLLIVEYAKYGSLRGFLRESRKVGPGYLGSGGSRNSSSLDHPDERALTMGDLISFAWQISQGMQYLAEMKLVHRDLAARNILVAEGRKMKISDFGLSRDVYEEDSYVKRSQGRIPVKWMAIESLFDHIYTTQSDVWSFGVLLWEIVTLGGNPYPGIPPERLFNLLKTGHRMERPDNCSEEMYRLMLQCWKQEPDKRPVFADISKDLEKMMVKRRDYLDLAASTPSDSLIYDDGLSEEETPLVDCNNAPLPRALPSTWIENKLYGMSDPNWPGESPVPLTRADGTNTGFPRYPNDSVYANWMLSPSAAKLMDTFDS
Experiment [3] has as its target N-terminal GST tagged recombinant human RET cytoplasmic domain (aa 658-end), wild type RET kinase (Homo sapiens (Human), UniProt P07949). The experiment in a line: RET Enzyme Assay (HTRF KinEASE-TK), wild type RET. The experiment is classed as biochemical. A general note: Time-resolved FRET reads energy transfer from a long-lived donor to a nearby acceptor.
Setting [4] is: HEK-293 cells expressing Kif5b-RET, read-out: KIF5B-RET pTYR1062 Cell IC50.
Setting [5] is: HEK-293 cells expressing Kif5b-RET, phospho-RET(Tyr1062), read-out: KIF5B-RET pTYR1062 Cell IC50.

Sequence of N-terminal GST tagged recombinant human RET cytoplasmic domain (aa 658-end), wild type RET kinase (P07949 658-1114): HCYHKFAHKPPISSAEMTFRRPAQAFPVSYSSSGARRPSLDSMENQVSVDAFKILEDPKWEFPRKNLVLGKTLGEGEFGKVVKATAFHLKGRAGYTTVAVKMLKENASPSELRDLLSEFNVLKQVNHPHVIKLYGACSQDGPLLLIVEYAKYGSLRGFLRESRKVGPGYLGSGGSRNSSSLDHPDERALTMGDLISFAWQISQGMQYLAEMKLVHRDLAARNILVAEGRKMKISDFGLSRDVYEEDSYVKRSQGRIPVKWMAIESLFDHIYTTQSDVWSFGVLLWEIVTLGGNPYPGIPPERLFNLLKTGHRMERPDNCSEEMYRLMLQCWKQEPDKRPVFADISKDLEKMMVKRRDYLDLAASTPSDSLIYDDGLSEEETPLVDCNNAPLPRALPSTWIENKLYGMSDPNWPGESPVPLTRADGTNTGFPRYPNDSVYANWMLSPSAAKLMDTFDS

By IC50 is commonly meant the point on the concentration scale where inhibition reaches its midpoint. Regarding `Cn1cc(-c2cc(-c3ccc(N4CCN(CCOC(C)(C)C)CC4)nc3)c3c(C#N)cnn3c2)cn1` [Example 420, 4-(6-(4-(2-(tert-butoxy)ethyl)piperazin-1-yl)pyridine-3-yl)-6-(1-methyl-1H-pyrazol-4-yl)pyrazolo[1,5-a]pyridine-3-carbonitrile], the 50% inhibitory concentration (IC50) in experiment [1] came to 792 nM; in experiment [2] (setting [4]), 5.6 nM; in experiment [3] (wild type RET, 1 mM ATP) it was 10.9 nM.
`CCc1nn(C)cc1-c1cc(-c2ccc(N3CCN(Cc4ccccc4)CC3)nc2)c2c(C#N)cnn2c1` [Example 610, 4-(6-(4-benzylpiperazin-1-yl)pyridin-3-yl)-6-(3-ethyl-1-methyl-1H-pyrazol-4-yl)pyrazolo[1,5-a]pyridine-3-carbonitrile]: the IC50 in experiment [1] came out at 4440 nM; in experiment [2] (setting [4]) it was 109 nM; in experiment [3] (wild type RET, 1 mM ATP), 48.1 nM.
As to `COCCN(CCOC)C(=O)N1CCN(c2ccc(-c3cc(-c4cnn(C)c4)cn4ncc(C#N)c34)cn2)CC1` [Example 385, 4-(5-(3-cyano-6-(1-methyl-1H-pyrazol-4-yl)pyrazolo[1,5-a]pyridin-4-yl)pyridine-2-yl)-N,N-bis(2-methoxyethyl)piperazine-1-carboxamide], the 50% inhibitory concentration (IC50) was 1970 nM in experiment [1]; 47.3 nM in experiment [2] (setting [4]); 27.1 nM in experiment [3] (wild type RET, 1 mM ATP).
On to `Cn1cc(-c2cc(-c3ccc(N4CCN(S(C)(=O)=O)CC4)nc3)c3c(Cl)cnn3c2)cn1` [Example 332, 3-chloro-6-(1-methyl-1H-pyrazol-4-yl)-4-(6-(4-(methylsulfonyl)piperazin-1-yl)pyridin-3-yl)pyrazolo[1,5-a]pyridine], for which the 50% inhibitory concentration (IC50) in experiment [1] (10% FBS) worked out at 207 nM; in experiment [2] (setting [5]) it was 47 nM; in experiment [3] (wild type RET, 1 mM ATP), 16.2 nM.
For the molecule `CO[C@H](C)CN1CCN(c2ccc(-c3cc(-c4cnn(C)c4)cn4ncc(C#N)c34)cn2)CC1` [Example 412, (R)-4-(6-(4-(2-methoxypropyl)piperazin-1-yl)pyridin-3-yl)-6-(1-methyl-1H-pyrazol-4-yl)pyrazolo[1,5-a]pyridine-3-carbonitrile], the IC50 in experiment [1] was 2130 nM; in experiment [2] (setting [4]) it was 18.2 nM; in experiment [3] (wild type RET, 1 mM ATP), 21.6 nM.
For the molecule `C[C@H](O)CC(=O)N1CCN(c2ccc(-c3cc(-c4cnn(C)c4)cn4ncc(C#N)c34)cn2)CC1` [Example 57, (S)-4-(6-(4-(3-hydroxybutanoyl)piperazin-1-yl)pyridin-3-yl)-6-(1-methyl-1H-pyrazol-4-yl)pyrazolo[1,5-a]pyridine-3-carbonitrile], the concentration for half-maximal inhibition (IC50) stood at 1040 nM in experiment [1] (10% FBS); 48.6 nM in experiment [2] (setting [5]); 12.7 nM in experiment [3] (wild type RET, 1 mM ATP).
Turning to `Cn1cc(-c2cc(-c3ccc(N4CCC(C(=O)NCC(F)(F)F)CC4)nc3)c3c(C#N)cnn3c2)cn1` [Example 243, 1-(5-(3-cyano-6-(1-methyl-1H-pyrazol-4-yl)pyrazolo[1,5-a]pyridin-4-yl)pyridin-2-yl)-N-(2,2,2-trifluoroethyl)piperidine-4-carboxamide], the IC50 turned out to be 103 nM in experiment [1] (10% FBS); 5.4 nM in experiment [2] (setting [5]); 5.6 nM in experiment [3] (wild type RET, 1 mM ATP).
Take `CCC1(C(=O)NC(C)C)CCN(c2ccc(-c3cc(-c4cnn(C)c4C)cn4ncc(C#N)c34)cn2)CC1` [Example 597, 1-(5-(3-cyano-6-(1,5-dimethyl-1H-pyrazol-4-yl)pyrazolo[1,5-a]pyridin-4-yl)pyridin-2-yl)-4-ethyl-N-isopropylpiperidine-4-carboxamide]: the 50% inhibitory concentration (IC50) was 830 nM in experiment [1]; 39.7 nM in experiment [2] (setting [4]); 34 nM in experiment [3] (wild type RET, 1 mM ATP).
`Cn1cc(-c2cc(-c3ccc(N4CCC(C)(NC(=O)OC(C)(C)C)CC4)nc3)c3c(C#N)cnn3c2)cn1` [Example 201, tert-butyl (1-(5-(3-cyano-6-(1-methyl-1H-pyrazol-4-yl)pyrazolo[1,5-a]pyridin-4-yl)pyridin-2-yl)-4-methylpiperidin-4-yl)carbamate]: the IC50 in experiment [1] (10% FBS) was 1150 nM; in experiment [2] (setting [5]), 7.1 nM; in experiment [3] (wild type RET, 1 mM ATP), 10.7 nM.
For `Cn1cc(-c2cc(-c3ccc(N4CCN(CCOC(F)(F)F)CC4)nc3)c3c(C#N)cnn3c2)cn1` [Example 398, 6-(1-methyl-1H-pyrazol-4-yl)-4-(6-(4-(2-(trifluoromethoxy)ethyl)piperazin-1-yl)pyridin-3-yl)pyrazolo[1,5-a]pyridine-3-carbonitrile], the IC50 in experiment [1] amounted to 1300 nM; in experiment [2] (setting [4]) it was 18.6 nM; in experiment [3] (wild type RET, 1 mM ATP), 11.1 nM.
Regarding `CCC1(C(=O)NC(C)C)CCN(c2ccc(-c3cc(-c4cn(C)nc4C)cn4ncc(C#N)c34)cn2)CC1` [Example 599, 1-(5-(3-cyano-6-(1,3-dimethyl-1H-pyrazol-4-yl)pyrazolo[1,5-a]pyridin-4-yl)pyridin-2-yl)-4-ethyl-N-isopropylpiperidine-4-carboxamide], the half-inhibitory concentration (IC50) in experiment [1] turned out to be 4860 nM; in experiment [2] (setting [4]), 16.5 nM; in experiment [3] (wild type RET, 1 mM ATP) it was 27.6 nM.
With `Cn1cc(-c2cc(-c3ccc(N4CCN(C(=O)CC(C)(C)O)CC4)nc3)c3c(C#N)cnn3c2)cn1` [Example 79, 4-(6-(4-(3-hydroxy-3-methylbutanoyl)piperazin-1-yl)pyridin-3-yl)-6-(1-methyl-1H-pyrazol-4-yl)pyrazolo[1,5-a]pyridine-3-carbonitrile], the 50% inhibitory concentration (IC50) in experiment [1] (10% FBS) is 1260 nM; in experiment [2] (setting [5]) it was 31.3 nM; in experiment [3] (wild type RET, 1 mM ATP), 14.5 nM.
Regarding `Cn1cc(-c2cc(-c3ccc(N4CCN(C(=O)CC(C)(C)C)CC4)nc3)c3c(C#N)cnn3c2)cn1` [Example 65, 4-(6-(4-(3,3-dimethylbutanoyl)piperazin-1-yl)pyridin-3-yl)-6-(1-methyl-1H-pyrazol-4-yl)pyrazolo[1,5-a]pyridine-3-carbonitrile], the half-maximal inhibitory concentration (IC50) came out at 902 nM in experiment [1] (10% FBS); 39.3 nM in experiment [2] (setting [5]); 8.2 nM in experiment [3] (wild type RET, 1 mM ATP).
As for `Cn1cc(-c2cc(-c3ccc(N4CCC(N)CC4)nc3)c3c(C#N)cnn3c2)cn1` [Example 177, 4-(6-(4-aminopiperidin-1-yl)pyridin-3-yl)-6-(1-methyl-1H-pyrazol-4-yl)pyrazolo[1,5-a]pyridine-3-carbonitrile dihydrochloride], the 50% inhibitory concentration (IC50) worked out at 1180 nM in experiment [1] (10% FBS); 69.9 nM in experiment [2] (read-out: KIF5B-RET pTYR1062 Cell IC50); 47 nM in experiment [3] (wild type RET, 1 mM ATP).
In the case of `COC(C)CNC(=O)C1CCN(c2ccc(-c3cc(-c4cnn(C)c4)cn4ncc(C#N)c34)cn2)CC1` (stereo not drawn) [Example 239, 1-(5-(3-cyano-6-(1-methyl-1H-pyrazol-4-yl)pyrazolo[1,5-a]pyridin-4-yl)pyridin-2-yl)-N-(2-methoxypropyl) piperidine-4-carboxamide], the IC50 was found to be 916 nM in experiment [1] (10% FBS); 5.8 nM in experiment [2] (setting [5]); 8.7 nM in experiment [3] (wild type RET, 1 mM ATP).
As to `CCn1cc(-c2cc(-c3ccc(N4CCN(Cc5ccccc5)CC4)nc3)c3c(C#N)cnn3c2)c(C)n1` [Example 609, 4-(6-(4-benzylpiperazin-1-yl)pyridin-3-yl)-6-(1-ethyl-3-methyl-1H-pyrazol-4-yl)pyrazolo[1,5-a]pyridine-3-carbonitrile], the half-maximal inhibitory concentration (IC50) is 1980 nM in experiment [1]; 31.5 nM in experiment [2]; 16.5 nM in experiment [3] (wild type RET, 1 mM ATP).
For `CC(C)NC(=O)CN1CCN(c2ccc(-c3cc(-c4cnn(C)c4)cn4ncc(C#N)c34)cn2)CC1` [Example 144, 2-(4-(5-(3-cyano-6-(1-methyl-1H-pyrazol-4-yl)pyrazolo[1,5-a]pyridin-4-yl)pyridin-2-yl)piperazin-1-yl)-N-isopropylacetamide 2,2,2-trifluoroacetate], the results for the concentration for half-maximal inhibition (IC50) in experiment [1] (10% FBS), in experiment [2] (setting [5]) and in experiment [3] were 1680 nM, 58.9 nM and 25.2 nM, respectively.
Turning to `CC(C)C(=O)NC1(C)CCN(c2ccc(-c3cc(-c4cnn(C)c4)cn4ncc(C#N)c34)cn2)CC1` [Example 203], the IC50 in experiment [1] (10% FBS) turned out to be 560 nM; in experiment [2] (setting [5]) it was 5.2 nM; in experiment [3] (wild type RET, 1 mM ATP), 5.8 nM.
The like results for `COC(CNC(=O)C1CCN(c2ccc(-c3cc(-c4cnn(C)c4)cn4ncc(C#N)c34)cn2)CC1)C(C)C` (stereo not drawn) [Example 236, 1-(5-(3-cyano-6-(1-methyl-1H-pyrazol-4-yl)pyrazolo[1,5-a]pyridin-4-yl)pyridin-2-yl)-N-(2-methoxy-3-methylbutyl)piperidine-4-carboxamide] were, in that order, 477 nM, 3.2 nM and 4 nM.
With `COC(CNC(=O)C1CCN(c2ccc(-c3cc(-c4cnn(C)c4)cn4ncc(C#N)c34)cn2)CC1)C(F)(F)F` (stereo not drawn) [Example 235, 1-(5-(3-cyano-6-(1-methyl-1H-pyrazol-4-yl)pyrazolo[1,5-a]pyridin-4-yl)pyridin-2-yl)-N-(3,3,3-trifluoro-2-methoxypropyl) piperidine-4-carboxamide], the half-inhibitory concentration (IC50) came out at 1510 nM in experiment [1] (10% FBS); 5.1 nM in experiment [2] (setting [5]); 7.4 nM in experiment [3] (wild type RET, 1 mM ATP).
As to `COc1ccccc1CN1CCN(c2ccc(-c3cc(-c4cnn(C)c4)cn4ncc(C#N)c34)cn2)CC1` [Example 451, 4-(6-(4-(2-methoxybenzyl)piperazin-1-yl)pyridin-3-yl)-6-(1-methyl-1H-pyrazol-4-yl)pyrazolo[1,5-a]pyridine-3-carbonitrile], the 50% inhibitory concentration (IC50) in experiment [1] turned out to be 593 nM; in experiment [2] it was 4.9 nM; in experiment [3] (wild type RET, 1 mM ATP) it was 4.9 nM.
As for `CN(C)CC(=O)N1CCN(c2ccc(-c3cc(-c4cnn(C)c4)cn4ncc(Cl)c34)cn2)CC1` [Example 328, 1-(4-(5-(3-chloro-6-(1-methyl-1H-pyrazol-4-yl)pyrazolo[1,5-a]pyridin-4-yl)pyridin-2-yl)piperazin-1-yl)-2-(dimethylamino)ethanone], the concentration for half-maximal inhibition (IC50) in experiment [1] (10% FBS) amounted to 1370 nM; in experiment [2] (setting [5]) it was 60.4 nM; in experiment [3] (wild type RET, 1 mM ATP), 62.1 nM.
